From the NIST ThermoML archive (doi:10.1016/j.fluid.2011.04.022)
Numbers after ± are expanded uncertainties.

Conditions: Liquid, Vibrating tube method

FC(F)(F)CC(F)(F)F [1,1,1,3,3,3-hexafluoropropane]
mass density [kg/m3]
Conditions | 293.38 K | 303.23 K | 313.1 K | 322.94 K | 333.06 K | 343.19 K | 353.23 K | 363.22 K | 373.17 K
1000 kPa | 1380.41 ± 1.6 | 1346.41 ± 1.8 | 1310.15 ± 2 | 1272.73 ± 2.3 | 1230.59 ± 2.5 | – | – | – | –
3000 kPa | 1389.7 ± 1.6 | 1356.85 ± 1.7 | 1322.54 ± 1.9 | 1287.52 ± 2.1 | 1248.74 ± 2.4 | 1207.31 ± 2.8 | 1161.43 ± 3.2 | – | –
5000 kPa | 1398.14 ± 1.6 | 1366.62 ± 1.6 | 1333.75 ± 1.7 | 1300.71 ± 1.9 | 1264.58 ± 2 | 1226.45 ± 2.3 | 1185.57 ± 2.6 | 1140.64 ± 3 | 1091.26 ± 3.4
10000 kPa | 1417.22 ± 1.5 | 1388.23 ± 1.6 | 1358.32 ± 1.7 | 1328.74 ± 1.8 | 1297.09 ± 1.9 | 1264.58 ± 2 | 1230.77 ± 2.3 | 1195.26 ± 2.5 | 1158.13 ± 2.9
15000 kPa | 1434.22 ± 1.5 | 1407.04 ± 1.5 | 1379.33 ± 1.6 | 1352.16 ± 1.6 | 1323.56 ± 1.7 | 1294.29 ± 1.8 | 1264.63 ± 1.9 | 1233.73 ± 2.1 | 1202.21 ± 2.2
20000 kPa | 1449.45 ± 1.5 | 1423.79 ± 1.5 | 1397.77 ± 1.5 | 1372.4 ± 1.6 | 1345.92 ± 1.6 | 1319.04 ± 1.7 | 1292.08 ± 1.8 | 1264.17 ± 1.8 | 1236.05 ± 1.9
25000 kPa | 1463.39 ± 1.5 | 1438.88 ± 1.5 | 1414.16 ± 1.5 | 1390.33 ± 1.6 | 1365.48 ± 1.6 | 1340.43 ± 1.6 | 1315.3 ± 1.7 | 1289.66 ± 1.7 | 1263.9 ± 1.8
30000 kPa | 1476.18 ± 1.5 | 1452.75 ± 1.5 | 1429.13 ± 1.5 | 1406.5 ± 1.6 | 1382.82 ± 1.6 | 1359.27 ± 1.6 | 1335.89 ± 1.6 | 1311.7 ± 1.6 | 1287.72 ± 1.7
35000 kPa | 1488.18 ± 1.6 | 1465.54 ± 1.6 | 1442.8 ± 1.6 | 1421.01 ± 1.6 | 1398.61 ± 1.6 | 1376.24 ± 1.6 | 1354.11 ± 1.6 | 1331.22 ± 1.6 | 1308.62 ± 1.6
40000 kPa | 1499.36 ± 1.6 | 1477.52 ± 1.6 | 1455.53 ± 1.6 | 1434.57 ± 1.6 | 1413.18 ± 1.6 | 1391.75 ± 1.6 | 1370.58 ± 1.6 | 1348.77 ± 1.6 | 1327.34 ± 1.6
50000 kPa | 1519.84 ± 1.7 | 1499.35 ± 1.7 | 1478.52 ± 1.7 | 1459.05 ± 1.7 | 1439.06 ± 1.7 | 1419.24 ± 1.6 | 1399.7 ± 1.6 | 1379.54 ± 1.6 | 1359.88 ± 1.6
60000 kPa | 1538.35 ± 1.9 | 1518.78 ± 1.9 | 1499.21 ± 1.8 | 1480.75 ± 1.8 | 1461.86 ± 1.8 | 1443.29 ± 1.8 | 1424.96 ± 1.7 | 1406.01 ± 1.7 | 1387.66 ± 1.7
70000 kPa | 1555.2 ± 2.1 | 1536.58 ± 2 | 1517.63 ± 2 | 1500.21 ± 2 | 1482.19 ± 1.9 | 1464.6 ± 1.9 | 1447.34 ± 1.9 | 1429.34 ± 1.8 | 1412.03 ± 1.8

FC(F)CC(F)(F)F [1,1,1,3,3-pentafluoropropane]
mass density [kg/m3]
Conditions | 293.84 K | 303.46 K | 313.18 K | 323 K | 332.83 K | 343.01 K | 353 K | 362.91 K | 372.94 K
1000 kPa | 1352.16 ± 1.4 | 1326.31 ± 1.5 | 1299.2 ± 1.5 | 1270.55 ± 1.6 | 1240.26 ± 1.7 | 1206.92 ± 1.9 | – | – | –
3000 kPa | 1357.97 ± 1.4 | 1332.8 ± 1.4 | 1306.56 ± 1.5 | 1278.98 ± 1.6 | 1250.02 ± 1.7 | 1218.46 ± 1.8 | 1185.75 ± 2 | 1150.79 ± 2.2 | 1112.26 ± 2.5
5000 kPa | 1363.53 ± 1.4 | 1338.98 ± 1.4 | 1313.51 ± 1.4 | 1286.86 ± 1.5 | 1259.06 ± 1.6 | 1228.97 ± 1.7 | 1198.11 ± 1.8 | 1165.55 ± 1.9 | 1130.36 ± 2.2
10000 kPa | 1376.42 ± 1.4 | 1353.32 ± 1.4 | 1329.44 ± 1.4 | 1304.71 ± 1.5 | 1279.16 ± 1.5 | 1251.88 ± 1.6 | 1224.38 ± 1.7 | 1195.94 ± 1.8 | 1165.97 ± 1.9
15000 kPa | 1388.34 ± 1.4 | 1366.31 ± 1.4 | 1343.73 ± 1.4 | 1320.47 ± 1.4 | 1296.63 ± 1.5 | 1271.37 ± 1.5 | 1246.17 ± 1.6 | 1220.45 ± 1.6 | 1193.67 ± 1.7
20000 kPa | 1399.29 ± 1.4 | 1378.22 ± 1.4 | 1356.77 ± 1.4 | 1334.65 ± 1.4 | 1312.15 ± 1.4 | 1288.45 ± 1.5 | 1265.01 ± 1.5 | 1241.23 ± 1.6 | 1216.58 ± 1.6
25000 kPa | 1409.54 ± 1.4 | 1389.33 ± 1.4 | 1368.61 ± 1.4 | 1347.58 ± 1.4 | 1326.17 ± 1.4 | 1303.77 ± 1.4 | 1281.67 ± 1.5 | 1259.38 ± 1.5 | 1236.4 ± 1.5
30000 kPa | 1419.03 ± 1.4 | 1399.65 ± 1.4 | 1379.73 ± 1.4 | 1359.46 ± 1.4 | 1339.02 ± 1.4 | 1317.65 ± 1.4 | 1296.64 ± 1.5 | 1275.54 ± 1.5 | 1253.82 ± 1.5
35000 kPa | 1428.09 ± 1.5 | 1409.33 ± 1.4 | 1390.16 ± 1.4 | 1370.64 ± 1.4 | 1350.93 ± 1.4 | 1330.42 ± 1.4 | 1310.33 ± 1.5 | 1290.2 ± 1.5 | 1269.55 ± 1.5
40000 kPa | 1436.79 ± 1.5 | 1418.45 ± 1.5 | 1399.89 ± 1.5 | 1381.03 ± 1.5 | 1362.03 ± 1.5 | 1342.2 ± 1.5 | 1322.95 ± 1.5 | 1303.67 ± 1.5 | 1283.89 ± 1.5
50000 kPa | 1452.73 ± 1.6 | 1435.43 ± 1.6 | 1417.82 ± 1.6 | 1400.08 ± 1.6 | 1382.12 ± 1.5 | 1363.61 ± 1.5 | 1345.62 ± 1.5 | 1327.67 ± 1.5 | 1309.28 ± 1.5
60000 kPa | 1467.39 ± 1.7 | 1450.88 ± 1.7 | 1434.07 ± 1.7 | 1417.12 ± 1.6 | 1400.21 ± 1.6 | 1382.71 ± 1.6 | 1365.63 ± 1.6 | 1348.77 ± 1.6 | 1331.43 ± 1.6
70000 kPa | 1480.99 ± 1.9 | 1465.1 ± 1.8 | 1449.07 ± 1.8 | 1432.87 ± 1.8 | 1416.64 ± 1.8 | 1399.92 ± 1.7 | 1383.75 ± 1.7 | 1367.68 ± 1.7 | 1351.23 ± 1.6
